Converted amounts (≈) assume the structure as drawn. Where two headings read alike, the source gives them in different places.
What was measured:
[1] = system: SK-BR-3 human mammary carcinoma cells; assay: Crystal violet growth inhibition assay, 48 hour exposure; format: cell-based
Procedure: (§1) This experiment was performed using the crystal violet growth inhibition assay. Cells with varying degrees of FAS activity were plated at 5000 cells per well in 96 well plates in RPMI-1640 with 10% heat-inactivated fetal bovine serum. After 72 hours of incubation in a humidified 95% air: 5% CO2 atmosphere, varying concentrations (0-500 µg/ml) of TOFA (5-tetradecyloxyl)-2-furoic acid were added and cultures were re-incubated for 48 hours. Plates were then removed and stained with crystal violet as described. Absorbance readings were averaged for each concentration of agent (n=4), control (n=8), and background (n=8). Background readings were subtracted. The concentration of TOFA is plotted against growth (as % of control growth) in Figure 15.
In these experiments, cells were plated at 5000 cells per well in a 96-well microtiter plate and maintained in RPMI-1640 with 10% heat-inactivated fetal bovine serum for 72 hours. Next, the compounds indicated in Table 4 were added, and cells were incubated for an additional 48 hours. Growth inhibition was then measured using the crystal violet method.

[2] = system: H'27; assay: as above; format: cell-based; details: Homo sapiens, read-out: ID50 (the source's name)
Procedure: as §1

[3] = system: SW480; assay: as above; format: cell-based; details: Homo sapiens, read-out: ID50 (the source's name)
Procedure: as §1

[4] = system: ZR-75-1; assay: as above; format: cell-based; details: Homo sapiens, read-out: ID50 (the source's name)
Procedure: as §1

[5] = biological target: condensing enzyme (Saccharomyces cerevisiae, UniProt P19097); details: report of Morisaki, et. al.; cited from earlier work
[6] = system: Vero; details: cited from earlier work
[7] = biological target: rat liver acyl-CoA synthetase; details: read-out: concentration causing 50% inhibition; cited from earlier work
[8] = system: ZR-75-1 cells; assay: Triacsin-C and cerulenin synergy, crystal violet growth inhibition; format: cell-based; details: Homo sapiens, ZR-75-1, 24 h
Procedure: 96 well microtiter plates were plated with ZR-75-1 cells at 25,000 cells/well and incubated overnight (18 h) at 37° C in 5% CO2. Triacsin-C was added to achieve the following micromolar concentrations in the presence of 0, 2.5, 5.0 or 10.0 µg/ml cerulenin: 50, 25, 12.5, 6.2, 3.1, 1.6, 0.8, 0.4, 0.2, 0.1 and 0. Each concentration was performed in quadruplicate. Cells were incubated for 24 hours, washed in PBS, solubilized in 1% SDS, stained with 0.2% crystal violet in 2% ethanol, and read at 490 nm on a Molecular Diagnostics plate reader.

[9] = system: Hela cells; details: cited from earlier work
[10] = system: Raji cells; details: cited from earlier work
[11] = biological target: T1, OA-519 fatty acid synthase (Homo sapiens, UniProt P49327); assay: Spectrophotometric fatty acid synthase assay (NADPH oxidation at 340 nm); format: biochemical
T1 construct: endogenous in cells; host or cells: ZR-75-1 breast carcinoma cell line (protein purified from the lysate)
T1 sequence (P49327 2-2511 limits assumed): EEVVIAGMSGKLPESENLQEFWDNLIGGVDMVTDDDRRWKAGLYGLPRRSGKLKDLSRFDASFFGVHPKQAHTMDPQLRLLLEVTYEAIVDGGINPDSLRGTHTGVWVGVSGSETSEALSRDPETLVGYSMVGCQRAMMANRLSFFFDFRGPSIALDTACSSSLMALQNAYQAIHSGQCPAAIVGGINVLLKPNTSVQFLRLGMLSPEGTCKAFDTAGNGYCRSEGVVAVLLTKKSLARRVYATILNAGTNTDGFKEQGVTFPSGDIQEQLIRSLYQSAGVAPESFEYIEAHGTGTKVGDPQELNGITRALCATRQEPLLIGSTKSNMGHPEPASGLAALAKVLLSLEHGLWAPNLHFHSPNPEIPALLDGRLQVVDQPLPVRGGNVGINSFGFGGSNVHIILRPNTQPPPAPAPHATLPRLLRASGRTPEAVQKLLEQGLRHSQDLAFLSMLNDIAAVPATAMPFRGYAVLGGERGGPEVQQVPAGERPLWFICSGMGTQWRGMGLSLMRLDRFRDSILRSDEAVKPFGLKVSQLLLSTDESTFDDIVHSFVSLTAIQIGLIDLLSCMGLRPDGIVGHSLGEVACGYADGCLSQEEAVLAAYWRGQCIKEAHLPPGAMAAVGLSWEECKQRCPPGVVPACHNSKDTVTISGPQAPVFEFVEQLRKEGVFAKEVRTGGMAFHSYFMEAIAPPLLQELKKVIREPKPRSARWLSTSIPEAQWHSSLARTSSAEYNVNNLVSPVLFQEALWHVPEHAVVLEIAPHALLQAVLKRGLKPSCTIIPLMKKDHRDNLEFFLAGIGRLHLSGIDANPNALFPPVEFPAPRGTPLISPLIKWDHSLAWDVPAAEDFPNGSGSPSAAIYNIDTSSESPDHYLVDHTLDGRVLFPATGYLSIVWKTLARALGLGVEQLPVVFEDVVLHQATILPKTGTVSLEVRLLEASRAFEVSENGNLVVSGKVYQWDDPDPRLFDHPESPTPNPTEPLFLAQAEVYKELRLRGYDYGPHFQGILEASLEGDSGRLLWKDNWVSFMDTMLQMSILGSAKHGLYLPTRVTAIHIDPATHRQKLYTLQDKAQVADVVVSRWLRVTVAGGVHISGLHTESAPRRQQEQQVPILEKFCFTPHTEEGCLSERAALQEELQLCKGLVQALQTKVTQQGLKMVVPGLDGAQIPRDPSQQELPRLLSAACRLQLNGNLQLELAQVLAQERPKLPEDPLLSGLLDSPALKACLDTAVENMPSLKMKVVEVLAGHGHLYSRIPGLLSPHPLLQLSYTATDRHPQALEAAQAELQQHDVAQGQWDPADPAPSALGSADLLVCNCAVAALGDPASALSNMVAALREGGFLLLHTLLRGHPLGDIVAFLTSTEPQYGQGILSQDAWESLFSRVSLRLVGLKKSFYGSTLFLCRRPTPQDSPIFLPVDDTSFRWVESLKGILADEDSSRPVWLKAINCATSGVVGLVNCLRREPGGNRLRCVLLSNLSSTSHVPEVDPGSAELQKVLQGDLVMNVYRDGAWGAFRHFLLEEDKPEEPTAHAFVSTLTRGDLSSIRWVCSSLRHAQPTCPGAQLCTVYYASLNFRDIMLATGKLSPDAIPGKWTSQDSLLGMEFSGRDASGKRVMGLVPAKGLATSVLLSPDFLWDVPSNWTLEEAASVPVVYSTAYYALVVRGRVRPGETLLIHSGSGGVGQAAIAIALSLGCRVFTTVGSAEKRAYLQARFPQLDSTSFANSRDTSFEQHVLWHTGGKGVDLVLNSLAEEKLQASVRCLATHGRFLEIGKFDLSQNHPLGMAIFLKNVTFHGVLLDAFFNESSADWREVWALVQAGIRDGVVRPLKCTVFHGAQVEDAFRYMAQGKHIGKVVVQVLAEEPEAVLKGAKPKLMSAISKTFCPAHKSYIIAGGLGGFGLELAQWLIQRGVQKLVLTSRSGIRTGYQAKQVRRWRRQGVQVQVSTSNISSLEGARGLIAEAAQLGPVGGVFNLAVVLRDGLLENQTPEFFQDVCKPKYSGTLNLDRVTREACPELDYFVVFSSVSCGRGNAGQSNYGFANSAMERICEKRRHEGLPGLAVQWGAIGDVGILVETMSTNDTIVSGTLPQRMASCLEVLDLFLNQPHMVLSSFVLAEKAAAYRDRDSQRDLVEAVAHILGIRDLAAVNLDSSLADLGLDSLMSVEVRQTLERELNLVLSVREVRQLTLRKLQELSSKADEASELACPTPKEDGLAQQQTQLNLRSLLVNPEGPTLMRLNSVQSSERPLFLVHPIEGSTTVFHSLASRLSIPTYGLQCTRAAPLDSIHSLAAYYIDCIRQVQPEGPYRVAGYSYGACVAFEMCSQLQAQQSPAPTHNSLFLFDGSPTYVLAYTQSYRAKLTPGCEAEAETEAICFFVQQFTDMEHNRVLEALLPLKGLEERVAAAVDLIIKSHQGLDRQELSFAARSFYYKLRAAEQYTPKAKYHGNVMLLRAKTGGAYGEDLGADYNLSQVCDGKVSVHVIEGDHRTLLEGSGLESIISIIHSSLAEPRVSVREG
Procedure: Spectrophotometric fatty acid synthase assay: The fatty acid synthase assay was performed in a total volume of 451 µl with the following components: 18.88 µg of purified OA-519 fatty acid synthase from the ZR-75-1 breast carcinoma cell line as described in Example 2, 25 nanomoles acetyl-CoA, 75 nanomoles NADPH, and 50 µl of 1 molar potassium phosphate, pH 6.6 at 25°C. The substrate malonyl-CoA was added at concentrations of 0.5 and 0.6 micromolar in the presence of 0, 9.9, 148, 198, or 397 micromolar cerulenin. HPLC grade water was added to achieve a final volume of 451 µl for all assays.
The enzyme, NADPH, acetyl-CoA, phosphate, cerulenin, and water were combined, vortexed, and incubated in a Beckman DU 650 spectrophotometer at 37°C. Oxidation of NADPH was monitored at 340 nm without substrate to determine background for 2 min. Malonyl-CoA was then added to the reaction cuvette, mixed, and incubated at 37°C while NADPH oxidation was determined at 10 second intervals at 340 nm in the spectrophotometer for a total of 2 min. All determinations were performed in duplicate.
Results: The spectrophotometric data was plotted according to Dixon (Dixon, M., Biochem. J., 55:170-171, 1953) which graphs inhibitor concentration versus 1/v for each given substrate concentration. […]

[12] = system: six cell lines listed in Table 3; assay: 14C-acetate incorporation into acyl-glycerides; format: cell-based, human; details: cerulenin 0, 2.5, 5.0 or 10.0 µg/ml; 6 hours
Procedure: (§2) Measurement of endogenous fatty acid incorporation into acyl-glycerides: For each cell type, 200,000 cells were plated in triplicate for non-polar and polar lipid analysis. Following overnight growth, each well of cells was incubated for 2 hours with 1 µCi ^14C acetate. ^14C-labeled lipids were extracted as above, and dried under N2. For analysis of non-polar lipids, samples were resuspended in 10 ul chloroform and spotted on silica gel N-HR (Brinkmann) and chromatographed in hexane:ethyl ether:acetic acid, 65:25:4 by volume. Cholesterol, palmitic acid, tripalmitin, and cholesterol palmitate (Matreya) were run as controls at 50 µg each. […] 50 µg each of cholesterol, phosphatidyl ethanolamine, lecithin, and lysolecithin (Matreya) were run as controls. ^14C-labeled lipids were detected and quantified using a Bioscan System 2000 imaging scanner with Autochanger 3000. […] Phosphatidylcholine and triglycerides were the predominant acyl-glycerides detected.
(§3) Measurement of endogenous fatty acid incorporation into acyl-glycerides and cholesterol: For each cell type, 200,000 cells were plated in triplicate for non-polar and polar lipid analysis for each drug dose in 24 well plates. […] For the last two hours of cerulenin incubation, 1 µCi of ^14C acetate was added per well. ^14C-labeled lipids were then extracted, chromatographed, and detected as described above. […]

[13] = system: ZR-75-1 cells; assay: Oleate rescue from cerulenin growth inhibition; format: cell-based, human; details: 10 µg/ml cerulenin for 24 hours; 1.5 mM oleate
Procedure: ZR-75-1 cells (5,000 per well) were plated in 96 well microtiter plates in medium supplemented with 0, 0.5, 1.0 or 1.5 mM oleate bound to delipidized bovine serum albumin at a molar ration of 4:1. After 18 hours incubation, cerulenin was added at a dose of 10 µg/ml. Cells were stained and assayed as in Example 10 after 24 hours (Figure 17, upper line) or 48 hours (lower line). The middle line of Figure 17 represents cells which were re-fed at 24 hours with medium containing the respective oleate concentration without cerulenin and assayed after a 48 hour total incubation. Error bars represent standard error of the mean.

[14] = system: normal human fibroblasts; assay: In vitro growth inhibition assay (crystal violet) with oleic acid supplement; format: cell-based; details: for effect on normal human fibroblasts: standard in vitro growth inhibition assays
Procedure: (§4) In vitro growth inhibition assays for OA-519 inhibition were performed using ZR-75-1 cells or normal human fibroblasts which were grown to confluence, and then 25,000 cells were plated in 1:1 conditioned:fresh medium (RPMI with 10% fetal calf serum) supplemented at a physiologic level to 0.5 millimolar oleic acid bound to previously delipidized bovine serum albumin. Cells were allowed to attach and grow overnight. At time 0, drugs diluted in RPMI medium with 10% fetal calf serum were added to achieve the following concentrations: 50 µg/ml to 0.01 µg/ml with serial two-fold dilutions including no drug and empty well controls. Each concentration was performed in quadruplicate and time points were taken at 4, 8, 24, and 48 h. After drug treatment, cells were stained with crystal violet, solubilized in SDS, and read on a Molecular Diagnostics automated plate reader at 570 nm.

[15] = biological target: viral HIV protease (Human immunodeficiency virus type 1 group M subtype B, UniProt P04585); details: cited from earlier work
[16] = system: H125 lung carcinoma line; assay: Growth inhibition assay without oleic acid, single 24 h time point; format: cell-based; details: no oleic acid, line with 11.6 picomoles per minute enzyme activity
Procedure: as §4
Growth Inhibition Assay: Anti-proliferative activity of cerulenin for each cell line was determined using the same assay and drug concentrations described in Example 5, except that no oleic acid was added and a single 24 h time point was taken.

[17] = system: TSU-pr1; assay: Population doubling assay, viable cell count (trypan blue); format: cell-based; details: Homo sapiens, 48-hour exposure, relative to untreated cultures, read-out: concentration giving 50% inhibition of population doubling
Procedure: (§5) TSU-pr1 and Dupro-1 cell lines were plated in RPMI-1640 with 10% fetal bovine serum at 3 X 10^5 and 1 X 10^5 cells respectively/T25 flask in a humidified atmosphere of 95% air: 5% CO2. After 24 hours, initial plating density was measured. In addition, media was replaced (control) or cerulenin was added at 2.5-10 µg/ml to duplicate cultures. Forty-eight hours later, cells were trypsinized and viable cells (trypan blue excluding) counted. The number of population doublings was estimated.

[18] = system: Dupro-1; assay: as above; format: cell-based; details: Homo sapiens; 48-hour exposure; relative to untreated cultures; read-out: concentration giving 50% inhibition of population doubling
Procedure: as §5

[19] = system: SKBR3 cells; assay: 14C-acetate incorporation into cholesterol; format: cell-based, human; details: cerulenin 0, 2.5, 5.0 or 10.0 µg/ml; 6 hours
Procedure: as §2, §3

[20] = system: MCF-7 cells; assay: 14C-acetate incorporation into cholesterol; format: cell-based, human; details: cerulenin 0, 2.5, 5.0 or 10.0 µg/ml; 6 hours
Procedure: as §2, §3

[21] = system: MCF-7 cells; assay: Clonogenic assay; format: cell-based, human; details: 10 µg/ml; exposure time 24 hours
Procedure: Clonogenic assay: One million cells were plated in 25 cm sq. flasks. […] Cells were then trypsinized to a single cell suspension and plated in 16 mm dishes at 1000 or 500 cells per dish in triplicate. Following 3 days incubation for ZR-75-1 and MCF-7 cells, and 7 days for SKBR3 cells, colonies were counted and expressed as the percentage of the untreated control.

[22] = system: ZR-75-1 cells; assay: In vitro growth inhibition assay (crystal violet) with oleic acid supplement; format: cell-based, human; details: for effect on carcinoma cells: standard in vitro growth inhibition assays
Procedure: as §4

[23] = SK-BR-3, 48 h, read-out: ID50 (µg/ml)
[24] = SK-BR-3, 48 hours, dose giving 50% reduction of control absorbance, quadruplicate, read-out: ID50 (the source's name)

Compound `O=C(O)C(=O)CBr` [Bromopyruvate] has an IC50 [1, 23] of 52 µg/mL (≈ 311 µM).
Work on `Cc1cc2c(C(C)C)c(O)c(O)c(C=O)c2c(O)c1-c1c(C)cc2c(C(C)C)c(O)c(O)c(C=O)c2c1O` [Gossypol] yielded an IC50 [1, 23] of 3.1 µg/mL (≈ 5.98 µM).
For `NC(=O)CI` [Iodoacetamide], the IC50 [1, 23] was 0.3 µg/mL (≈ 1.62 µM).
Work on `CCN1C(=O)C=CC1=O` [N-ethylmaleimide] yielded an IC50 [1, 23] of 0.9 µg/mL (≈ 7.19 µM).
Work on `CC(C)(COP(=O)(O)OP(=O)(O)OC[C@H]1O[C@@H](n2cnc3c(N)ncnc32)[C@H](O)[C@@H]1OP(=O)(O)O)[C@@H](O)C(=O)NCCC(=O)NCCSCC(=O)O` [S-carboxymethyl CoA] yielded an IC50 [1, 24] of 61.4 µg/mL (≈ 74.4 µM).
For `CCC/C(=N\OCC)C1=C(O)CC(CC(C)SCC)CC1=O` (centres unmarked) [Sethoxydim], the IC50 [1, 23] was 9.5 µg/mL (≈ 29 µM).
Work on `CCCCCCCCCCCCCCOc1ccc(C(=O)O)o1` [TOFA, 5 (tetradecyloxy)-2-furoic acid] yielded an IC50 [2] of 44.7 µg/mL (≈ 138 µM), an IC50 [3] of 59.8 µg/mL (≈ 184 µM) and an IC50 [4] of 0.8 µg/mL (≈ 2.47 µM). The IC50 [1, 24] was 4.6 µg/mL (≈ 14.2 µM).
For `CCCCCCCCC(=O)C1OC1C(N)=O` (centres unmarked) [Tetrahydrocerulenin], the “times less potent than cerulenin” value [5] is listed as 80-150 times.
For `CCC/C=C/C/C=C/C=C/C=NN=NO` [Triacsin C, 1-hydroxy-3-(E, E, E-2', 4', 7' - undecatrienylidine) triazene], the growth inhibition [6] is given as “inhibit growth”, the IC50 [7] is given as 8.7 µM and the IC50 ([8]; cerulenin added at a level approximating its ID50) is given as < 1 µM. For the same compound, the IC50 ([8]; triacsin-C alone, read-out: ID50 (the source's name)) was ~15 µM, the growth inhibition [9] was “inhibit growth” and the “concentration causing growth inhibition” value [10] was 1.0 µM.
For `C/C=C/C/C=C/CCC(=O)[C@H]1O[C@H]1C(N)=O` [cerulenin, (2S) (3R) 2,3-epoxy-4-oxo-7,10 dodecadienoyl amide], the Ki ([11]; for the substrate malonyl-CoA, Dixon plot, enzyme purified from ZR-75-1, read-out: apparent Ki) was 32 µM, the “type of inhibition of OA-519 fatty acid synthase activity” value ([11]; purified OA-519) was “non-competitive inhibitor” and the “incorporation of 14C-acetate into acyl-glycerides” value [12] was “consistently and significantly inhibited in a dose-related manner”. The “reversal of growth inhibition by oleate” value [13] was “virtually complete reversal of growth inhibition”, the effect on growth ([14]; cerulenin 6.25 µg/ml, 0.5 millimolar oleic acid) was “unaffected” and the “effect on normal human fibroblasts” value [14] was “little effect”. The “concentration at which inhibition occurs” value [15] was 5 mg/mL, the growth inhibition [16] was 48% and the IC50 [17] was 3 to 4 µg/mL (≈ 13.4 to 17.9 µM). The IC50 [18] was 3 to 4 µg/mL (≈ 13.4 to 17.9 µM), the cholesterol synthesis [19] was “stimulation” and the cholesterol synthesis [20] was “mild inhibition”. The cell kill [21] was “greater than three logs of cell kill”, the inhibition at 6.25 µg/mL ([22]; Homo sapiens, ZR-75-1, cerulenin 6.25 µg/ml, by 48 h, 0.5 millimolar oleic acid, read-out: growth inhibited) was > 80% and the “effect on carcinoma cells” value [22] was “anti-proliferative”. For the same compound, the IC50 [1, 24] was 3.6 µg/mL (≈ 16.1 µM).
In the case of `Nc1nc(N)nc(Nc2ccc([As]3SCC(CO)S3)cc2)n1` (centres unmarked) [melarsoprol], the “effect on normal human fibroblasts” value [14] is reported as “little effect” and the “effect on carcinoma cells” value [22] is reported as “anti-proliferative”.

Reference: patent publication EP0651636B1, “CHEMOTHERAPY FOR CANCER” (THE JOHNS HOPKINS UNIVERSITY, priority 1992, dated 1994)
